# Results as given in US9458202B2, “Peptidomimetic macrocycles with improved properties” (Aileron Therapeutics, Inc., priority 2008, dated 2016).
# Where a SMILES comes first, the peptide text is derived from it. Bridges are numbered along the chain shown (N, C = ends). [ ]: non-standard residue; d: D form. The star is where a group is joined. S5 = C=CCCC[C@](C)(N)C(=O)O; Nle = CCCC[C@H](N)C(=O)O; Aib = CC(C)(N)C(=O)O; Propionyl = CCC(=O)*
# Columns and labels:
# [1] = Figure 5
# Description: Table printed on a drawing sheet, Figure 5
# The patent's description of the figure: FIG. 5 illustrates the PK profile in rat and monkey for a peptidomimetic macrocycle of the invention.
# First reader's note: The first row combines the substance name (SP2) with the conditions dose, route and species in one cell.
# [2] = Figure 2; design: AUCall: concentration or dose not given beside the values; details: for C0 / half-life / MRT: Sprague-Dawley, rat, plasma, iv; for MRT: read-out: MRTinf_obs
# Method: Table printed on a drawing sheet, Figure 2
# Footnotes: 2 mg/mL iv bolus in Sprague-Dawley rats (10 mg/kg) / * 0.6 mg/mL iv bolus in Sprague-Dawley rats (3 mg/kg)
# The patent's description of the figure: FIG. 2 lists the in vivo half-lives of peptidomimetic macrocycles of the invention. Half-lives were measured in Sprague Dawley rats after one intravenous bolus injection at 0.6 mg/mL or 2 mg/mL of each unlabeled peptidomimetic macrocycle at a 3 mg/kg or 10 mg/kg dose, respectively. Three animals were used per compound and concentrations were determined by mass-spectrometric analysis of blood levels (plasma).
# First reader's note: An asterisk before the peptide name marks dosing at 3 mg/kg (0.6 mg/mL) instead of 10 mg/kg (2 mg/mL).
SMILES,AUC all [1],Cmax [1],MRTinf [1],T ½ [1],AUCall [2],Cl_obs [2],C0 [2],half-life [2],MRT [2]
"CC[C@H](C)[C@H](NC(C)=O)C(=O)N[C@@H](Cc1c[nH]c2ccccc12)C(=O)N[C@H](C(=O)N[C@@H](C)C(=O)N[C@@H](CCC(N)=O)C(=O)N[C@@H](CCC(=O)O)C(=O)N[C@@H](CC(C)C)C(=O)N[C@@H](CCCNC(=N)N)C(=O)N[C@@]1(C)CCCC=CCCC[C@@](C)(C(=O)N[C@@H](Cc2ccccc2)C(=O)N[C@@H](CC(N)=O)C(=O)N[C@@H](C)C(=O)N[C@@H](Cc2ccc(O)cc2)C(=O)N[C@@H](Cc2ccc(O)cc2)C(=O)N[C@@H](C)C(=O)N[C@@H](CCCNC(=N)N)C(=O)N[C@@H](CCCNC(=N)N)C(N)=O)NC(=O)[C@H](CC(=O)O)NC(=O)CNC(=O)[C@H]([C@@H](C)CC)NC1=O)[C@@H](C)CC (single isomer, unassigned) [SP2 1 mg/kg IV monkey]",27.275 µg·h/mL,19.049 µg/mL,1.8 h,2.2 h,–,–,–,–,–
"CC[C@H](C)[C@H](NC(C)=O)C(=O)N[C@@H](Cc1c[nH]c2ccccc12)C(=O)N[C@H](C(=O)N[C@@H](C)C(=O)N[C@@H](CCC(N)=O)C(=O)N[C@@H](CCC(=O)O)C(=O)N[C@@H](CC(C)C)C(=O)N[C@@H](CCCNC(=N)N)C(=O)N[C@@]1(C)CCCC=CCCC[C@@](C)(C(=O)N[C@@H](Cc2ccccc2)C(=O)N[C@@H](CC(N)=O)C(=O)N[C@@H](C)C(=O)N[C@@H](Cc2ccc(O)cc2)C(=O)N[C@@H](Cc2ccc(O)cc2)C(=O)N[C@@H](C)C(=O)N[C@@H](CCCNC(=N)N)C(=O)N[C@@H](CCCNC(=N)N)C(N)=O)NC(=O)[C@H](CC(=O)O)NC(=O)CNC(=O)[C@H]([C@@H](C)CC)NC1=O)[C@@H](C)CC (single isomer, unassigned) [SP2 3 mg/kg IV monkey]",110.669 µg·h/mL,51.54 µg/mL,1.9 h,2 h,–,–,–,–,–
"CC[C@H](C)[C@H](NC(C)=O)C(=O)N[C@@H](Cc1c[nH]c2ccccc12)C(=O)N[C@H](C(=O)N[C@@H](C)C(=O)N[C@@H](CCC(N)=O)C(=O)N[C@@H](CCC(=O)O)C(=O)N[C@@H](CC(C)C)C(=O)N[C@@H](CCCNC(=N)N)C(=O)N[C@@]1(C)CCCC=CCCC[C@@](C)(C(=O)N[C@@H](Cc2ccccc2)C(=O)N[C@@H](CC(N)=O)C(=O)N[C@@H](C)C(=O)N[C@@H](Cc2ccc(O)cc2)C(=O)N[C@@H](Cc2ccc(O)cc2)C(=O)N[C@@H](C)C(=O)N[C@@H](CCCNC(=N)N)C(=O)N[C@@H](CCCNC(=N)N)C(N)=O)NC(=O)[C@H](CC(=O)O)NC(=O)CNC(=O)[C@H]([C@@H](C)CC)NC1=O)[C@@H](C)CC (single isomer, unassigned) [SP2 10 mg/kg IV monkey]",427.932 µg·h/mL,180.01 µg/mL,2.2 h,1.9 h,–,–,–,–,–
"CC[C@H](C)[C@H](NC(C)=O)C(=O)N[C@@H](Cc1c[nH]c2ccccc12)C(=O)N[C@H](C(=O)N[C@@H](C)C(=O)N[C@@H](CCC(N)=O)C(=O)N[C@@H](CCC(=O)O)C(=O)N[C@@H](CC(C)C)C(=O)N[C@@H](CCCNC(=N)N)C(=O)N[C@@]1(C)CCCC=CCCC[C@@](C)(C(=O)N[C@@H](Cc2ccccc2)C(=O)N[C@@H](CC(N)=O)C(=O)N[C@@H](C)C(=O)N[C@@H](Cc2ccc(O)cc2)C(=O)N[C@@H](Cc2ccc(O)cc2)C(=O)N[C@@H](C)C(=O)N[C@@H](CCCNC(=N)N)C(=O)N[C@@H](CCCNC(=N)N)C(N)=O)NC(=O)[C@H](CC(=O)O)NC(=O)CNC(=O)[C@H]([C@@H](C)CC)NC1=O)[C@@H](C)CC (single isomer, unassigned) [SP2]",–,–,–,–,170.685 µg·h/mL,1.36 mL/min/kg,70.3 µg/mL,5.7 h,3.1 h
CCCC[C@H](NC(=O)[C@]1(C)CCCC=CCCC[C@](C)(NC(=O)[C@H](C)NC(=O)[C@H](CC(C)C)NC(=O)[C@]2(C)CCCC=CCCCCC(=O)N[C@@H]([C@@H](C)CC)C(=O)N[C@@H](C)C(=O)N[C@@H](CCCNC(=N)N)C(=O)N2)C(=O)N[C@@H](C(C)C)C(=O)NCC(=O)N[C@@H](CC(=O)O)C(=O)N1)C(=O)N[C@@H](CC(=O)O)C(=O)N[C@@H](CCCNC(=N)N)C(=O)N[C@@H](CO)C(=O)N[C@H](C(N)=O)[C@@H](C)CC [*SP12],–,–,–,–,69.035 µg·h/mL,0.503 mL/min/kg,6.4 µg/mL,5.9 h,9.2 h
CC[C@H](C)[C@H](NC(C)=O)C(=O)N[C@@H](Cc1c[nH]c2ccccc12)C(=O)N[C@H](C(=O)N[C@@H](C)C(=O)N[C@@H](CCC(N)=O)C(=O)N[C@@H](CCC(N)=O)C(=O)N[C@@H](CC(C)C)C(=O)N[C@@H](CCCNC(=N)N)C(=O)N[C@@]1(C)CCCC=CCCC[C@@](C)(C(=O)N[C@@H](Cc2ccccc2)C(=O)N[C@@H](CC(N)=O)C(=O)N[C@@H](C)C(=O)N[C@@H](Cc2ccc(O)cc2)C(=O)N[C@@H](Cc2ccc(O)cc2)C(=O)N[C@@H](C)C(=O)N[C@@H](CCCNC(=N)N)C(=O)N[C@@H](CCCNC(=N)N)C(N)=O)NC(=O)[C@H](CC(=O)O)NC(=O)CNC(=O)[C@H]([C@@H](C)CC)NC1=O)[C@@H](C)CC [SP3],–,–,–,–,156.183 µg·h/mL,1.1 mL/min/kg,186 µg/mL,11.1 h,4.3 h
CCCC[C@H](NC(=O)[C@]1(C)CCCC=CCCC[C@](C)(NC(=O)[C@H](C)NC(=O)[C@H](CC(C)C)NC(=O)[C@H](Cc2c[nH]cn2)NC(=O)[C@H](CCCNC(=N)N)NC(=O)[C@H](C)NC(=O)[C@@H](NC(=O)[C@H](CC(N)=O)NC(=O)[C@H](CCCNC(=N)N)NC(=O)CC)[C@@H](C)CC)C(=O)N[C@@H](C(C)C)C(=O)NC(C)(C)C(=O)N[C@@H](CC(=O)O)C(=O)N1)C(=O)N[C@@H](CC(=O)O)C(=O)N[C@@H](CCCNC(=N)N)C(=O)N[C@@H](CO)C(=O)N[C@H](C(N)=O)[C@@H](C)CC [SP5] (Propionyl-RNIARHLA[S5]V[Aib]D[S5][Nle]DRSI-NH2; staple 9-13),–,–,–,–,127.629 µg·h/mL,1.52 mL/min/kg,271 µg/mL,2.4 h,0.6 h
CC[C@H](C)[C@H](NC(=O)[C@H](CO)NC(=O)[C@H](CCCNC(=N)N)NC(=O)[C@H](C)NC(=O)[C@H](C)NC(=O)[C@]1(C)CCCC=CCCC[C@](C)(NC(=O)[C@H](C)NC(=O)[C@H](CC(C)C)NC(=O)[C@H](Cc2c[nH]cn2)NC(=O)[C@H](CCCNC(=N)N)NC(=O)[C@H](C)NC(=O)[C@@H](NC(=O)[C@H](CC(N)=O)NC(=O)[C@H](CCCNC(=N)N)NC(=O)[C@@H](NC(=O)[C@@H](NC(=O)[C@H](CC(=O)O)NC(C)=O)[C@@H](C)CC)[C@@H](C)CC)[C@@H](C)CC)C(=O)N[C@@H](C(C)C)C(=O)NC(C)(C)C(=O)N[C@@H](CC(=O)O)C(=O)N1)C(N)=O [SP7] (Ac-DIIRNIARHLA[S5]V[Aib]D[S5]AARSI-NH2; staple 12-16),–,–,–,–,402.899 µg·h/mL,0.398 mL/min/kg,158 µg/mL,3.9 h,3.1 h
CCC(=O)N[C@@H](CCCNC(=N)N)C(=O)N[C@@H](CC(N)=O)C(=O)N[C@H](C(=O)N[C@@H](C)C(=O)N[C@@H](CCCNC(=N)N)C(=O)N[C@@H](Cc1c[nH]cn1)C(=O)N[C@@H](CC(C)C)C(=O)N[C@@H](C)C(=O)N[C@@]1(C)CCCC=CCCC[C@@](C)(C(=O)N[C@@H](Cc2ccccc2)C(=O)N[C@@H](C)C(=O)N[C@@H](CCCNC(=N)N)C(=O)N[C@@H](CO)C(=O)N[C@H](C(N)=O)[C@@H](C)CC)NC(=O)[C@H](CC(=O)O)NC(=O)C(C)(C)NC(=O)[C@H](C(C)C)NC1=O)[C@@H](C)CC [SP8] (Propionyl-RNIARHLA[S5]V[Aib]D[S5]FARSI-NH2; staple 9-13),–,–,–,–,73.751 µg·h/mL,1.997 mL/min/kg,148 µg/mL,19.9 h,2.3 h
CCCC[C@H](NC(=O)[C@]1(C)CCCC=CCCC[C@](C)(NC(=O)[C@H](C)NC(=O)[C@H](CC(C)C)NC(=O)[C@H](Cc2c[nH]cn2)NC(=O)[C@H](CCCNC(=N)N)NC(=O)[C@H](C)NC(=O)[C@@H](NC(=O)[C@H](CC(N)=O)NC(=O)[C@H](CCCNC(=N)N)NC(=O)CC)[C@@H](C)CC)C(=O)N[C@@H](C(C)C)C(=O)NCC(=O)N[C@@H](CC(=O)O)C(=O)N1)C(=O)NC(C)(C)C(=O)N[C@@H](CCCNC(=N)N)C(=O)N[C@@H](CO)C(=O)N[C@H](C(N)=O)[C@@H](C)CC [SP10] (Propionyl-RNIARHLA[S5]VGD[S5][Nle][Aib]RSI-NH2; staple 9-13),–,–,–,–,35.591 µg·h/mL,3.605 mL/min/kg,51.7 µg/mL,21.8 h,3 h
